Data reported in patent EP0353754A2, “Radioactively marked benzodiazepin derivates” (F. HOFFMANN-LA ROCHE AG, priority 1988, dated 1990).

Assay: Organ distribution of injected radioactivity in rats after I.V. injection
Assay type: in vivo, Ratten (weiblich, Wistar, spf)
Conditions: Ratte
Experimental: Es werden je 3 Ratten (weiblich, Wistar, spf) zu sieben verschiedenen Zeitpunkten (2′, 10′, 20′, 40′, 1h, 6h, 15h) gemessen. Das Gewicht der Tiere lag zwischen 113 und 144 g. Die Fütterung erfolgte ad libitum. Die I.V. injizierten Dosen variierten von 184 bis 355 µCi in jeweils 0,2 ml.

## CCOC(=O)c1ncn2c1CN(C)C(=O)c1c([123I])cccc1-2 [Aethyl-7-¹²³Jod-5,6-dihydro-5-methyl-6-oxo-4H-imidazo[1,5-a][1,4]benzodiazepin-3-carboxylat]
Blase, 2′
  Prozent der injizierten Aktivität in den entsprechend Organen: 0,03 Prozent der injizierten Aktivität
Blase, 10′
  Prozent der injizierten Aktivität in den entsprechend Organen: 0,06 Prozent der injizierten Aktivität
Blase, 20′
  Prozent der injizierten Aktivität in den entsprechend Organen: 0,03 Prozent der injizierten Aktivität
Blase, 40′
  Prozent der injizierten Aktivität in den entsprechend Organen: 0,01 Prozent der injizierten Aktivität
Blase, 60′
  Prozent der injizierten Aktivität in den entsprechend Organen: 0,03 Prozent der injizierten Aktivität
Blase, 6h
  Prozent der injizierten Aktivität in den entsprechend Organen: 0,09 Prozent der injizierten Aktivität
Blase, 15h
  Prozent der injizierten Aktivität in den entsprechend Organen: 0,0022 Prozent der injizierten Aktivität
Darm, 2′
  Prozent der injizierten Aktivität in den entsprechend Organen: 9,28 Prozent der injizierten Aktivität
Darm, 10′
  Prozent der injizierten Aktivität in den entsprechend Organen: 12,70 Prozent der injizierten Aktivität
Darm, 20′
  Prozent der injizierten Aktivität in den entsprechend Organen: 22,53 Prozent der injizierten Aktivität
Darm, 40′
  Prozent der injizierten Aktivität in den entsprechend Organen: 25,54 Prozent der injizierten Aktivität
Darm, 60′
  Prozent der injizierten Aktivität in den entsprechend Organen: 28,48 Prozent der injizierten Aktivität
Darm, 6h
  Prozent der injizierten Aktivität in den entsprechend Organen: 19,50 Prozent der injizierten Aktivität
Darm, 15h
  Prozent der injizierten Aktivität in den entsprechend Organen: 1,012 Prozent der injizierten Aktivität
Femur, 2′
  Prozent der injizierten Aktivität in den entsprechend Organen: 0,39 Prozent der injizierten Aktivität
Femur, 10′
  Prozent der injizierten Aktivität in den entsprechend Organen: 0,25 Prozent der injizierten Aktivität
Femur, 20′
  Prozent der injizierten Aktivität in den entsprechend Organen: 0,14 Prozent der injizierten Aktivität
Femur, 40′
  Prozent der injizierten Aktivität in den entsprechend Organen: 0,06 Prozent der injizierten Aktivität
Femur, 60′
  Prozent der injizierten Aktivität in den entsprechend Organen: 0,04 Prozent der injizierten Aktivität
Femur, 6h
  Prozent der injizierten Aktivität in den entsprechend Organen: 0,01 Prozent der injizierten Aktivität
Femur, 15h
  Prozent der injizierten Aktivität in den entsprechend Organen: 0,004 Prozent der injizierten Aktivität
Herz, 2′
  Prozent der injizierten Aktivität in den entsprechend Organen: 0,58 Prozent der injizierten Aktivität
Herz, 10′
  Prozent der injizierten Aktivität in den entsprechend Organen: 0,37 Prozent der injizierten Aktivität
Herz, 20′
  Prozent der injizierten Aktivität in den entsprechend Organen: 0,17 Prozent der injizierten Aktivität
Herz, 40′
  Prozent der injizierten Aktivität in den entsprechend Organen: 0,06 Prozent der injizierten Aktivität
Herz, 60′
  Prozent der injizierten Aktivität in den entsprechend Organen: 0,03 Prozent der injizierten Aktivität
Herz, 6h
  Prozent der injizierten Aktivität in den entsprechend Organen: 0,009 Prozent der injizierten Aktivität
Herz, 15h
  Prozent der injizierten Aktivität in den entsprechend Organen: 0,0035 Prozent der injizierten Aktivität
Hirn, 2′
  Prozent der injizierten Aktivität in den entsprechend Organen: 3,11 Prozent der injizierten Aktivität
Hirn, 10′
  Prozent der injizierten Aktivität in den entsprechend Organen: 5,38 Prozent der injizierten Aktivität
Hirn, 20′
  Prozent der injizierten Aktivität in den entsprechend Organen: 4,20 Prozent der injizierten Aktivität
Hirn, 40′
  Prozent der injizierten Aktivität in den entsprechend Organen: 4,02 Prozent der injizierten Aktivität
Hirn, 60′
  Prozent der injizierten Aktivität in den entsprechend Organen: 2,42 Prozent der injizierten Aktivität
Hirn, 6h
  Prozent der injizierten Aktivität in den entsprechend Organen: 0,08 Prozent der injizierten Aktivität
Hirn, 15h
  Prozent der injizierten Aktivität in den entsprechend Organen: 0,0015 Prozent der injizierten Aktivität
Kot + Urin, 2′
  Prozent der injizierten Aktivität in den entsprechend Organen: 0,05 Prozent der injizierten Aktivität
Kot + Urin, 10′
  Prozent der injizierten Aktivität in den entsprechend Organen: 6,17 Prozent der injizierten Aktivität
Kot + Urin, 20′
  Prozent der injizierten Aktivität in den entsprechend Organen: 19,39 Prozent der injizierten Aktivität
Kot + Urin, 40′
  Prozent der injizierten Aktivität in den entsprechend Organen: 48,72 Prozent der injizierten Aktivität
Kot + Urin, 60′
  Prozent der injizierten Aktivität in den entsprechend Organen: 51,71 Prozent der injizierten Aktivität
Kot + Urin, 6h
  Prozent der injizierten Aktivität in den entsprechend Organen: 48,81 Prozent der injizierten Aktivität
Kot + Urin, 15h
  Prozent der injizierten Aktivität in den entsprechend Organen: 42,69 Prozent der injizierten Aktivität
Leber, 2′
  Prozent der injizierten Aktivität in den entsprechend Organen: 16,90 Prozent der injizierten Aktivität
Leber, 10′
  Prozent der injizierten Aktivität in den entsprechend Organen: 34,37 Prozent der injizierten Aktivität
Leber, 20′
  Prozent der injizierten Aktivität in den entsprechend Organen: 17,61 Prozent der injizierten Aktivität
Leber, 40′
  Prozent der injizierten Aktivität in den entsprechend Organen: 3,90 Prozent der injizierten Aktivität
Leber, 60′
  Prozent der injizierten Aktivität in den entsprechend Organen: 1,29 Prozent der injizierten Aktivität
Leber, 6h
  Prozent der injizierten Aktivität in den entsprechend Organen: 0,15 Prozent der injizierten Aktivität
Leber, 15h
  Prozent der injizierten Aktivität in den entsprechend Organen: 0,107 Prozent der injizierten Aktivität
Lunge, 2′
  Prozent der injizierten Aktivität in den entsprechend Organen: 1,04 Prozent der injizierten Aktivität
Lunge, 10′
  Prozent der injizierten Aktivität in den entsprechend Organen: 0,81 Prozent der injizierten Aktivität
Magen, 2′
  Prozent der injizierten Aktivität in den entsprechend Organen: 0,81 Prozent der injizierten Aktivität
Magen, 10′
  Prozent der injizierten Aktivität in den entsprechend Organen: 1,20 Prozent der injizierten Aktivität
Magen, 20′
  Prozent der injizierten Aktivität in den entsprechend Organen: 1,28 Prozent der injizierten Aktivität
Magen, 40′
  Prozent der injizierten Aktivität in den entsprechend Organen: 1,37 Prozent der injizierten Aktivität
Magen, 60′
  Prozent der injizierten Aktivität in den entsprechend Organen: 1,96 Prozent der injizierten Aktivität
Magen, 6h
  Prozent der injizierten Aktivität in den entsprechend Organen: 1,35 Prozent der injizierten Aktivität
Magen, 15h
  Prozent der injizierten Aktivität in den entsprechend Organen: 0,346 Prozent der injizierten Aktivität
Milz, 2′
  Prozent der injizierten Aktivität in den entsprechend Organen: 0,26 Prozent der injizierten Aktivität
Milz, 10′
  Prozent der injizierten Aktivität in den entsprechend Organen: 0,21 Prozent der injizierten Aktivität
Milz, 20′
  Prozent der injizierten Aktivität in den entsprechend Organen: 0,11 Prozent der injizierten Aktivität
Milz, 40′
  Prozent der injizierten Aktivität in den entsprechend Organen: 0,06 Prozent der injizierten Aktivität
Milz, 60′
  Prozent der injizierten Aktivität in den entsprechend Organen: 0,03 Prozent der injizierten Aktivität
Milz, 6h
  Prozent der injizierten Aktivität in den entsprechend Organen: 0,008 Prozent der injizierten Aktivität
Milz, 15h
  Prozent der injizierten Aktivität in den entsprechend Organen: 0,0035 Prozent der injizierten Aktivität
Nieren, 2′
  Prozent der injizierten Aktivität in den entsprechend Organen: 3,15 Prozent der injizierten Aktivität
Nieren, 10′
  Prozent der injizierten Aktivität in den entsprechend Organen: 7,48 Prozent der injizierten Aktivität
Nieren, 20′
  Prozent der injizierten Aktivität in den entsprechend Organen: 6,25 Prozent der injizierten Aktivität
Nieren, 40′
  Prozent der injizierten Aktivität in den entsprechend Organen: 1,53 Prozent der injizierten Aktivität
Nieren, 60′
  Prozent der injizierten Aktivität in den entsprechend Organen: 0,79 Prozent der injizierten Aktivität
Nieren, 6h
  Prozent der injizierten Aktivität in den entsprechend Organen: 0,04 Prozent der injizierten Aktivität
Nieren, 15h
  Prozent der injizierten Aktivität in den entsprechend Organen: 0,009 Prozent der injizierten Aktivität
Ovar, 2′
  Prozent der injizierten Aktivität in den entsprechend Organen: 0,09 Prozent der injizierten Aktivität
Ovar, 10′
  Prozent der injizierten Aktivität in den entsprechend Organen: 0,06 Prozent der injizierten Aktivität
Ovar, 20′
  Prozent der injizierten Aktivität in den entsprechend Organen: 0,05 Prozent der injizierten Aktivität
Ovar, 40′
  Prozent der injizierten Aktivität in den entsprechend Organen: 0,02 Prozent der injizierten Aktivität
Ovar, 60′
  Prozent der injizierten Aktivität in den entsprechend Organen: 0,02 Prozent der injizierten Aktivität
Ovar, 6h
  Prozent der injizierten Aktivität in den entsprechend Organen: 0,003 Prozent der injizierten Aktivität
Ovar, 15h
  Prozent der injizierten Aktivität in den entsprechend Organen: 0,0008 Prozent der injizierten Aktivität
Restkörper, 2′
  Prozent der injizierten Aktivität in den entsprechend Organen: 63,94 Prozent der injizierten Aktivität
Restkörper, 10′
  Prozent der injizierten Aktivität in den entsprechend Organen: 29,92 Prozent der injizierten Aktivität
Restkörper, 20′
  Prozent der injizierten Aktivität in den entsprechend Organen: 25,92 Prozent der injizierten Aktivität
Restkörper, 40′
  Prozent der injizierten Aktivität in den entsprechend Organen: 11,04 Prozent der injizierten Aktivität
Restkörper, 60′
  Prozent der injizierten Aktivität in den entsprechend Organen: 7,09 Prozent der injizierten Aktivität
Restkörper, 6h
  Prozent der injizierten Aktivität in den entsprechend Organen: 2,88 Prozent der injizierten Aktivität
Restkörper, 15h
  Prozent der injizierten Aktivität in den entsprechend Organen: 1,30 Prozent der injizierten Aktivität
Schilddrüse, 2′
  Prozent der injizierten Aktivität in den entsprechend Organen: 0,18 Prozent der injizierten Aktivität
Schilddrüse, 10′
  Prozent der injizierten Aktivität in den entsprechend Organen: 0,15 Prozent der injizierten Aktivität
Schilddrüse, 20′
  Prozent der injizierten Aktivität in den entsprechend Organen: 0,18 Prozent der injizierten Aktivität
Schilddrüse, 40′
  Prozent der injizierten Aktivität in den entsprechend Organen: 0,03 Prozent der injizierten Aktivität
Schilddrüse, 60′
  Prozent der injizierten Aktivität in den entsprechend Organen: 0,02 Prozent der injizierten Aktivität
Schilddrüse, 6h
  Prozent der injizierten Aktivität in den entsprechend Organen: 0,008 Prozent der injizierten Aktivität
Schilddrüse, 15h
  Prozent der injizierten Aktivität in den entsprechend Organen: 0,0015 Prozent der injizierten Aktivität
Totalkörper, 2′
  Prozent der injizierten Aktivität in den entsprechend Organen: 99,75 Prozent der injizierten Aktivität
Totalkörper, 10′
  Prozent der injizierten Aktivität in den entsprechend Organen: 92,96 Prozent der injizierten Aktivität
Totalkörper, 20′
  Prozent der injizierten Aktivität in den entsprechend Organen: 78,87 Prozent der injizierten Aktivität
Totalkörper, 40′
  Prozent der injizierten Aktivität in den entsprechend Organen: 47,80 Prozent der injizierten Aktivität
Totalkörper, 60′
  Prozent der injizierten Aktivität in den entsprechend Organen: 43,17 Prozent der injizierten Aktivität
Totalkörper, 6h
  Prozent der injizierten Aktivität in den entsprechend Organen: 24,16 Prozent der injizierten Aktivität
